Assay results reported in paper doi:10.1101/2024.08.13.607785v1 (biorxiv, 2024).
Read-outs that look alike come from different tables or passages of the source.

Legend:
Assay in all cases: biochemical
Design in all cases: species or system human cell line lysate
[1] = target: AP2-associated protein kinase 1 ; AAK1 ; Q2M2I8 (Homo sapiens, UniProt Q2M2I8)
[2] = target: Casein kinase II subunit alpha ; CSNK2A1 ; P68400 (Homo sapiens, UniProt P68400)
[3] = target: T1, Cyclin-G-associated kinase ; GAK ; O14976 (Homo sapiens, UniProt O14976)
T1 sequence (O14976 1-1311): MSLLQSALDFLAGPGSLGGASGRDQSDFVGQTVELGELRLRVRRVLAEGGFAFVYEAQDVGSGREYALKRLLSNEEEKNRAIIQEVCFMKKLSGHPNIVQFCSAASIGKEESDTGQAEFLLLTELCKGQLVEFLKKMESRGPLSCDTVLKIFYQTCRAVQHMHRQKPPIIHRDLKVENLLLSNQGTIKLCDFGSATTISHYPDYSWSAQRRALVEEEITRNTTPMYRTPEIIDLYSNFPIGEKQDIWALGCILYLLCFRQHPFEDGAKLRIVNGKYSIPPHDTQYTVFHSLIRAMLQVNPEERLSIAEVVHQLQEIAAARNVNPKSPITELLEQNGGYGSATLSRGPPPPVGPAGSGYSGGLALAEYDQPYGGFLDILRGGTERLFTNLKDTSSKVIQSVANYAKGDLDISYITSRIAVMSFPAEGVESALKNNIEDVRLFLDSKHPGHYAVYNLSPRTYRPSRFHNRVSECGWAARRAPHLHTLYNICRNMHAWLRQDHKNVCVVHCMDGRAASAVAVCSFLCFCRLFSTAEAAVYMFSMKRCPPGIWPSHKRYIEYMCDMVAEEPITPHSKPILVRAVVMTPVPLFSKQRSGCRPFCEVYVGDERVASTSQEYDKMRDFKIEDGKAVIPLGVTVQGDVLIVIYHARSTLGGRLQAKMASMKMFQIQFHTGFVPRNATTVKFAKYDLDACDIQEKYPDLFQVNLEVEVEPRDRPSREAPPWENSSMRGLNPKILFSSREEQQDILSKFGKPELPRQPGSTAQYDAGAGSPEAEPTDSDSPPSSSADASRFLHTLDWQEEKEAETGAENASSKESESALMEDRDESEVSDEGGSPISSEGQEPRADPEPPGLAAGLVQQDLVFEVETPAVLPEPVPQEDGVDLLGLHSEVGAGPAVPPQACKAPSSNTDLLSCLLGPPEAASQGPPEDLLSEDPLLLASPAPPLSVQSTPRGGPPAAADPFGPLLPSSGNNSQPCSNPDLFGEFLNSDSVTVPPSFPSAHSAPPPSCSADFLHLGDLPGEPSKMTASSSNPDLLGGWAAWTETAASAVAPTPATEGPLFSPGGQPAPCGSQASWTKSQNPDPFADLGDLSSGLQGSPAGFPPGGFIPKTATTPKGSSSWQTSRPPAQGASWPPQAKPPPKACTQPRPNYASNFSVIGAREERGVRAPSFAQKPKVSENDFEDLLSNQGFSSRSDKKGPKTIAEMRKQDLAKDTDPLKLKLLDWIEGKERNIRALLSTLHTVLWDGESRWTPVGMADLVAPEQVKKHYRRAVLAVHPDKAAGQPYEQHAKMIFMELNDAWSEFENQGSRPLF

[4] = target: Isoform 3 of Serine/threonine-protein kinase MARK1 ; MARK1 ; Q9P0L2-3 (Homo sapiens, UniProt Q9P0L2)
[5] = target: Isoform 4 of Serine/threonine-protein kinase Nek2 ; NEK2 ; P51955-4 (Homo sapiens, UniProt P51955)
[6] = target: MAP/microtubule affinity-regulating kinase 3 ; MARK3 ; P27448 (Homo sapiens, UniProt P27448)
[7] = target: Mitogen-activated protein kinase 3 ; MAPK3 ; P27361 (Homo sapiens, UniProt P27361)
Mitogen-activated protein kinase 3 ; MAPK3 ; P27361, sequence (P27361 whole entry): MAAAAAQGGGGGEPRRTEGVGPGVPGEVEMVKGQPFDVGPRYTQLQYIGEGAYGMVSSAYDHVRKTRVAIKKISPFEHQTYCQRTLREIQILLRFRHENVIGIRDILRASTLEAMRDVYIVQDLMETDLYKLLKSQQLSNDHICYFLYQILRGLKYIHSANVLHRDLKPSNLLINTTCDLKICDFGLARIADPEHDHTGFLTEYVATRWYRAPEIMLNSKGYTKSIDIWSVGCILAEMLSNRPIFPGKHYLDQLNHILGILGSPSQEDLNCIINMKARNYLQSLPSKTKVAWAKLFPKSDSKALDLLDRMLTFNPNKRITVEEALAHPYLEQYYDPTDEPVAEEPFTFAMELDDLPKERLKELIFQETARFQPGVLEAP

[8] = target: Mitogen-activated protein kinase kinase kinase 15 ; MAP3K15 ; Q6ZN16 (Homo sapiens, UniProt Q6ZN16)
Mitogen-activated protein kinase kinase kinase 15 ; MAP3K15 ; Q6ZN16, sequence (Q6ZN16 whole entry): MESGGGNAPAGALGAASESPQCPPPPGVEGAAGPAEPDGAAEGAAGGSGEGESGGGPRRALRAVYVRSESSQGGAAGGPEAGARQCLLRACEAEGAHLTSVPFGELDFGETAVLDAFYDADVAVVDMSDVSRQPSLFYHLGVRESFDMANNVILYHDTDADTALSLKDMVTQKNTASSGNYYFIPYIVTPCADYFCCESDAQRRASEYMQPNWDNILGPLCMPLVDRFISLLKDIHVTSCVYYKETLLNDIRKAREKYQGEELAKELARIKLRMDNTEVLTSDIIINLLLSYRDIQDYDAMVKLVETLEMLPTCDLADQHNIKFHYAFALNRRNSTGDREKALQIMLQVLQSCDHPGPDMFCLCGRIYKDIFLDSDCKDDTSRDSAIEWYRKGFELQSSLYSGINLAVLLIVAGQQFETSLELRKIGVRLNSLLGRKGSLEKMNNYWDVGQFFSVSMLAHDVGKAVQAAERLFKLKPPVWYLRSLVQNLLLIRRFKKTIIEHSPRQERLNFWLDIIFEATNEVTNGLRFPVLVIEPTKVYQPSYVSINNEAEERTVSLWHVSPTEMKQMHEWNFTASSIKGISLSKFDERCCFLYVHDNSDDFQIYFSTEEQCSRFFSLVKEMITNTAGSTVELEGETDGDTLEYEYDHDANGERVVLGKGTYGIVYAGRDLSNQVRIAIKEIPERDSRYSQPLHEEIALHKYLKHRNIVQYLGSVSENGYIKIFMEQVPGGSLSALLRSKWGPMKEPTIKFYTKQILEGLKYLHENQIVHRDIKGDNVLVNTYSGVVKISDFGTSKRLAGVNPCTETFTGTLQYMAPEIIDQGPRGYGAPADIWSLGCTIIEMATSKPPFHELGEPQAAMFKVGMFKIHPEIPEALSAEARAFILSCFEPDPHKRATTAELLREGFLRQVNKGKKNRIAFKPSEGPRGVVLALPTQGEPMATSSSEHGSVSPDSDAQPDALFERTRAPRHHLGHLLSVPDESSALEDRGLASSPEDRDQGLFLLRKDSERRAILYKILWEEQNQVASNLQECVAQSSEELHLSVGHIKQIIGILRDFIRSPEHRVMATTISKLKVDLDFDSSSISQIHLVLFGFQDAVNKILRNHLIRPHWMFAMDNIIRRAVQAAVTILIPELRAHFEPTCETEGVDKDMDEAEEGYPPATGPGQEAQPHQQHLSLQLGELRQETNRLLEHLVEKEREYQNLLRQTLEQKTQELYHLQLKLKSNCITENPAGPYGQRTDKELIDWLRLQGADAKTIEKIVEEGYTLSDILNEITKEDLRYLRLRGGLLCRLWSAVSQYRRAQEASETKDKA

[9] = target: Ribosomal protein S6 kinase beta-1 ; RPS6KB1 ; P23443 (Homo sapiens, UniProt P23443)
[10] = target: Serine/threonine-protein kinase ATR ; ATR ; Q13535 (Homo sapiens, UniProt Q13535)
[11] = target: Serine/threonine-protein kinase D2 ; PRKD2 ; Q9BZL6 (Homo sapiens, UniProt Q9BZL6)
Serine/threonine-protein kinase D2 ; PRKD2 ; Q9BZL6, sequence (Q9BZL6 whole entry, one chain of several): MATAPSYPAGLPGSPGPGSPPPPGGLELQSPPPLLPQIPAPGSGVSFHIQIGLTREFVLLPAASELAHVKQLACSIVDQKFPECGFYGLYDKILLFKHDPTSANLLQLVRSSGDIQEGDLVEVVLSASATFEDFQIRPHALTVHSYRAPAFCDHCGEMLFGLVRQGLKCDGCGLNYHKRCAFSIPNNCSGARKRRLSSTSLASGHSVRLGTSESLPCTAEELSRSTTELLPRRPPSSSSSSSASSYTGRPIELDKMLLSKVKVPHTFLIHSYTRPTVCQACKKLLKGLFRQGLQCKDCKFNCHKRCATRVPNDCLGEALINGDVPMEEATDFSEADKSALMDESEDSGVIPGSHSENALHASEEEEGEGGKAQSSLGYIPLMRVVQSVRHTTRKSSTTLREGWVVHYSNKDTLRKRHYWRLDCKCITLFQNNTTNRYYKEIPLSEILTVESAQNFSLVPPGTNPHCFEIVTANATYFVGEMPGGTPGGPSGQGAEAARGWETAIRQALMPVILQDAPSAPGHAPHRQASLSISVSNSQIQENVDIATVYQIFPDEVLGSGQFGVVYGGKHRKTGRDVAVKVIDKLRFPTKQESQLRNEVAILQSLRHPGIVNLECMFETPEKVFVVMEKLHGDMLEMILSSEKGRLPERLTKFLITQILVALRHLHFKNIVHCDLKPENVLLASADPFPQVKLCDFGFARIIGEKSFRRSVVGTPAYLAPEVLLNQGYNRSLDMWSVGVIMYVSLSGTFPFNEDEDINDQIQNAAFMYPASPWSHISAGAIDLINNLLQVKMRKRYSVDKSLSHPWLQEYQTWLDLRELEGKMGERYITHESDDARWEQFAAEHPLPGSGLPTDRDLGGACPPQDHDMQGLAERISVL

[12] = target: Serine/threonine-protein kinase N1 ; PKN1 ; Q16512 (Homo sapiens, UniProt Q16512)
[13] = target: Serine/threonine-protein kinase PLK4 ; PLK4 ; O00444 (Homo sapiens, UniProt O00444)
Serine/threonine-protein kinase PLK4 ; PLK4 ; O00444, sequence (O00444 whole entry, one chain of several): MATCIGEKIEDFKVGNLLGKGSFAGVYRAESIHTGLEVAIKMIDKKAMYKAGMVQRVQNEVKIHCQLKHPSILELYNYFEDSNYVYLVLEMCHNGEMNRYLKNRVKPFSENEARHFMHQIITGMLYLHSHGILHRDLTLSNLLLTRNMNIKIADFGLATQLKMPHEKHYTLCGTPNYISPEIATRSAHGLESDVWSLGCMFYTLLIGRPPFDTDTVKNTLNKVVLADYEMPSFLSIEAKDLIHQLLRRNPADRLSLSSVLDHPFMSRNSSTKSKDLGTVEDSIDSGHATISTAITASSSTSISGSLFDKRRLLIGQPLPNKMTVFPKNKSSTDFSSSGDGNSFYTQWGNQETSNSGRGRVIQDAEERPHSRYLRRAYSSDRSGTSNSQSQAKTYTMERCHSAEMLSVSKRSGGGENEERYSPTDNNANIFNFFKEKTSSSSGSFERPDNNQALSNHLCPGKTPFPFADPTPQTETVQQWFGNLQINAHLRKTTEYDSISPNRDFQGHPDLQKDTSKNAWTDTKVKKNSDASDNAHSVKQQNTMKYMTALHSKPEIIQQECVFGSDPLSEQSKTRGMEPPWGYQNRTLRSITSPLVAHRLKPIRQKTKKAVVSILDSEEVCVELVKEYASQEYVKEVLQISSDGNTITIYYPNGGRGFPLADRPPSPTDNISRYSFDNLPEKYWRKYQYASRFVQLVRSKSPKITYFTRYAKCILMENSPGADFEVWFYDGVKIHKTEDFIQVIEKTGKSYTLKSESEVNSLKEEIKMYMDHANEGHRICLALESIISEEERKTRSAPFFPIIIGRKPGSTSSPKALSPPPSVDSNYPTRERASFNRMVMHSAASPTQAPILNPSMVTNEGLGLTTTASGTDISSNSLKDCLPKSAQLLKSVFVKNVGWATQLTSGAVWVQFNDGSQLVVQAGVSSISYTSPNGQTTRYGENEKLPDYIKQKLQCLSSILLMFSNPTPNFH

[14] = target: Serine/threonine-protein kinase ULK1 ; ULK1 ; O75385 (Homo sapiens, UniProt O75385)
Serine/threonine-protein kinase ULK1 ; ULK1 ; O75385, sequence (O75385 whole entry, one chain of several): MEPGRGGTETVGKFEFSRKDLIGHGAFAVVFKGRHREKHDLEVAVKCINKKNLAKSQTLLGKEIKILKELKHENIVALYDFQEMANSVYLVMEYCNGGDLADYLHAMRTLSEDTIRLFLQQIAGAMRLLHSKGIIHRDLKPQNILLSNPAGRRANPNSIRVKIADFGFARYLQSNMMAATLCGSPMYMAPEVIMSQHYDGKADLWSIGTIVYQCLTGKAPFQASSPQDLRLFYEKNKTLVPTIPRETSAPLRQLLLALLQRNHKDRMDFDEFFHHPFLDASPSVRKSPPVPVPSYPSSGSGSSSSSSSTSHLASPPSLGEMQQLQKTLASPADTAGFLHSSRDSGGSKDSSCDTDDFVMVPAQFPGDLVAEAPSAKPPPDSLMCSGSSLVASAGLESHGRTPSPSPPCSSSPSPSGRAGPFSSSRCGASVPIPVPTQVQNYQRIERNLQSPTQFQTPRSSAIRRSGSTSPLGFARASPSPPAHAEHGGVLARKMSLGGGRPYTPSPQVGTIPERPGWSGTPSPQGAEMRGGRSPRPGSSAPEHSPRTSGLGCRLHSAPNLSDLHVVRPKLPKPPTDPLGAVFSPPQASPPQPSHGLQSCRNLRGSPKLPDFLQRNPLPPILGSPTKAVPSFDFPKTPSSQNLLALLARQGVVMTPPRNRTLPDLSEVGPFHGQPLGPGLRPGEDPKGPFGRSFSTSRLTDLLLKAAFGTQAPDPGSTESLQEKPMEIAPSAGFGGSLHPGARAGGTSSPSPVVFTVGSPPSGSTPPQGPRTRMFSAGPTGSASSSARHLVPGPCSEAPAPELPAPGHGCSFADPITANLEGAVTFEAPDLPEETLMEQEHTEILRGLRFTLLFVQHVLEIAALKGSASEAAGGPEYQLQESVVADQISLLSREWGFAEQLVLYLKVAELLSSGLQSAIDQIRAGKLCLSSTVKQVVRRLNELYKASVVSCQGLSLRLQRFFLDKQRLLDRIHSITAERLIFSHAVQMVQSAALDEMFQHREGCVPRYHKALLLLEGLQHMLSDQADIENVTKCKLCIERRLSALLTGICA

[15] = read-out: BAY-1143572 (10 µM) / %Intensity relative to DMSO
[16] = read-out: BAY-1251152 (10 µM) / %Intensity relative to DMSO

Casein kinase II subunit alpha ; CSNK2A1 ; P68400, sequence (P68400 whole entry, one chain of several): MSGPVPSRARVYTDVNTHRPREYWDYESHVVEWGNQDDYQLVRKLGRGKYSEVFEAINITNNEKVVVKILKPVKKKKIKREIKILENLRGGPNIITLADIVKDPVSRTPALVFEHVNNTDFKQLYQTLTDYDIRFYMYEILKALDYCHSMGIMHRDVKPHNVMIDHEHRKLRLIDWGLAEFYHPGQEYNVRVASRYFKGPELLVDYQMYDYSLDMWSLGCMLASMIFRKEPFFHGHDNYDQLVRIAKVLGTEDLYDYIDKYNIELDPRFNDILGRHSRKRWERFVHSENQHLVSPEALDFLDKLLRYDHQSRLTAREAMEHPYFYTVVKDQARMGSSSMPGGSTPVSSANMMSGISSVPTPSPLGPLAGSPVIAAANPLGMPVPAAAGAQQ

Q: What does the source list for `COc1cc(F)ccc1-c1ncnc(Nc2cccc(C[S@](C)(=N)=O)c2)n1` [BAY-1143572]?
A: remaining activity at 10 µM [1, 15]: 80.2%; remaining activity at 10 µM [2, 15]: 110%; remaining activity at 10 µM [3, 15]: 96.6%; remaining activity at 10 µM [4, 15]: 80.9%; remaining activity at 10 µM [5, 15]: 115%; remaining activity at 10 µM [6, 15]: 106%; remaining activity at 10 µM [7, 15]: 104%; remaining activity at 10 µM [8, 15]: 91.7%; remaining activity at 10 µM [9, 15]: 137%; remaining activity at 10 µM [10, 15]: 109%; remaining activity at 10 µM [11, 15]: 99.6%; remaining activity at 10 µM [12, 15]: 156%; remaining activity at 10 µM [13, 15]: 104%; remaining activity at 10 µM [14, 15]: 132%

Q: How did the remaining activity at 10 µM [1, 16] turn out when `COc1cc(F)ccc1-c1cc(Nc2cc(CS(C)(=N)=O)ccn2)ncc1F` (stereo not shown) [BAY-1251152] was run?
A: Its remaining activity at 10 µM is 87.9%.

Q: And the remaining activity at 10 µM [2, 16]?
A: The remaining activity at 10 µM was 105%.

Q: What about the remaining activity at 10 µM [3, 16] of the same molecule?
A: The remaining activity at 10 µM was 100%.

Q: What about the remaining activity at 10 µM [4, 16] of the same molecule?
A: Its remaining activity at 10 µM is 84.7%.

Q: And the remaining activity at 10 µM [5, 16]?
A: Its remaining activity at 10 µM is 114%.

Q: What about the remaining activity at 10 µM [6, 16] of the same molecule?
A: Its remaining activity at 10 µM is 100%.

Q: And the remaining activity at 10 µM [7, 16]?
A: Its remaining activity at 10 µM is 96.8%.

Q: What about the remaining activity at 10 µM [8, 16] of the same molecule?
A: The remaining activity at 10 µM was 95%.

Q: And the remaining activity at 10 µM [9, 16]?
A: The remaining activity at 10 µM was 129%.

Q: And the remaining activity at 10 µM [10, 16]?
A: The remaining activity at 10 µM was 70.1%.

Q: And the remaining activity at 10 µM [11, 16]?
A: The remaining activity at 10 µM was 96.3%.

Q: And the remaining activity at 10 µM [12, 16]?
A: Its remaining activity at 10 µM is 137%.

Q: And the remaining activity at 10 µM [13, 16]?
A: The remaining activity at 10 µM was 109%.

Q: What about the remaining activity at 10 µM [14, 16] of the same molecule?
A: The remaining activity at 10 µM was 145%.
